Data reported in patent publication US20080076711A1, “Therapeutic agents for osteopenia” (Chugai Seiyaku Kabushiki Kaisha, priority 2001, published 2008).

Tested on: wild-type strain 129 female mice
Assay: Analysis of urinary deoxypyridinoline (Dpyr) after PTH treatment, wild-type mice
Type: in vivo, mouse
Conditions: WT mice
Protocol: At 26 days after treatment with PTH, a 24-hour urine sample was collected from each mouse (10 samples per group). As a marker of bone metabolism, the level of urinary deoxypyridinoline (Dpyr) was measured for each sample using an ELISA kit (Metra Biosystems, San Diego, Calif.) in accordance with the manufacturer's protocol. Recombinant human PTH(1-34) (Bachem, Torrance, Calif.) was dissolved in acidified physiological saline supplemented with 0.1% bovine serum albumin (Sigma Chemical Co.-Aldrich, St. Louis, Mo.). The OPN-KO mice were subcutaneously administered with 80 μg/kg of body weight human PTH(1-34) for 4 weeks on a five-days-a-week basis. Mice in the control group were administered with physiological saline alone. The effect of PTH on bone metabolism was also examined in the same manner as shown in Example 1, using wild-type strain 129 female mice (7 weeks of age). These mice were divided into groups of 6 mice each.

human PTH(1-34)
urinary Dpyr level (PTH(+) group, 24-hour urine at 26 days): 34.86±6.90 nM/mM Cr
fold increase in systemic bone resorption (urinary Dpyr) by PTH treatment (PTH(+) vs PTH(−) group, p<0.05): ~1.2 fold
